From US20260306527A1, “PRMT INHIBITOR COMPOUNDS AND THE USES THEREOF” (Purdue Research Foundation, priority 2023, published 2026)

Key:
Format in all cases: biochemical
PRMT3 = PRMT3 (Homo sapiens, UniProt O60678); assay: SAHH-coupled fluorescence assay, inhibition of PRMT3; set-up: PRMT3 (residues 211-531) was cloned into the pET28a-MHL expression vector; tag of the pET28a-MHL vector (not described); made in house; host or cells: Escherichia coli BL21(DE3)
Experimental: (§1) A fluorescence-based SAHH-coupled assay was applied to study the inhibition activity of all synthesized compounds on PRMT 1 and 3.
(§2) The PRMT3 methylation assay was performed under the following conditions in a final well volume of 100 μL: 20 mM Tris (pH=7.5), 0.01% Triton X-100, 5 μM SAHH, 0.25 μM PRMT3, 30 μM AdoMet, and 15 μM ThioGlo4. […] Fluorescence was monitored on a BMG CLARIOstar microplate reader with excitation 380 nm and emission 505 nm. Data were processed by using GraphPad Prism software 8.0. All experiments were performed in duplicate.
(§3) Next, the inhibition activity of the library was investigated for five PRMT members from type I PRMTs.
as §2, with “8.0.” for “8.0. All experiments were performed in duplicate.”

PRMT8 = PRMT8 (Homo sapiens, UniProt Q9NR22); assay: radioactive assay (Reaction Biology Corp.), inhibition of PRMT8
PRMT8, sequence (Q9NR22 whole entry, species assumed): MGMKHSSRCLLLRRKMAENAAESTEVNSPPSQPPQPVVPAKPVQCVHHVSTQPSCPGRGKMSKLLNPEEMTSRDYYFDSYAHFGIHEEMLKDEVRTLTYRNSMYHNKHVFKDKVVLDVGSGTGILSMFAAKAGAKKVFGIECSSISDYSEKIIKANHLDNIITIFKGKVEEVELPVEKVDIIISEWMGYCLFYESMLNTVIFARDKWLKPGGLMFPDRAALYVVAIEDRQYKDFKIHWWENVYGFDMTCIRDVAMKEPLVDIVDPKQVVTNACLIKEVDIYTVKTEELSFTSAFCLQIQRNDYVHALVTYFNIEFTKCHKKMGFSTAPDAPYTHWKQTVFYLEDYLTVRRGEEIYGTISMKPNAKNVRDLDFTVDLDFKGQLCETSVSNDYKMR
Experimental: as §3
(§4) The PRMT 4, 6 and 8 methylation assays were performed by Reaction Biology corp.

PRMT6 = PRMT6 (Homo sapiens, UniProt Q96LA8); assay: radioactive assay (Reaction Biology Corp.), inhibition of PRMT6
PRMT6, sequence (Q96LA8 whole entry, species assumed): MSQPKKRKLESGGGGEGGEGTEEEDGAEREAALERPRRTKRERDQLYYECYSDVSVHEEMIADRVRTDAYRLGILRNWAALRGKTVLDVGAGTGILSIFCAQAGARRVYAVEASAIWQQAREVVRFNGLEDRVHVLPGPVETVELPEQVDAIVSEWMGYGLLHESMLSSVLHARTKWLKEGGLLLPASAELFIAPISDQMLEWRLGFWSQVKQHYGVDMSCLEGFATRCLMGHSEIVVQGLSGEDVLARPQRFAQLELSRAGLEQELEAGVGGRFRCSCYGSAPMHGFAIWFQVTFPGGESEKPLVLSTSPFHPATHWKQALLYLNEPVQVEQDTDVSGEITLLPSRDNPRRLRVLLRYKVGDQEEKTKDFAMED
Experimental: as §3, §4

PRMT1 = molecular target: T1, PRMT1 (Homo sapiens, UniProt Q99873); assay: SAHH-coupled fluorescence assay, inhibition of PRMT1; conditions: for IC50: read-out: IC50 FOR PRMT1
T1 construct: made in house
T1 sequence (Q99873 whole entry, species assumed): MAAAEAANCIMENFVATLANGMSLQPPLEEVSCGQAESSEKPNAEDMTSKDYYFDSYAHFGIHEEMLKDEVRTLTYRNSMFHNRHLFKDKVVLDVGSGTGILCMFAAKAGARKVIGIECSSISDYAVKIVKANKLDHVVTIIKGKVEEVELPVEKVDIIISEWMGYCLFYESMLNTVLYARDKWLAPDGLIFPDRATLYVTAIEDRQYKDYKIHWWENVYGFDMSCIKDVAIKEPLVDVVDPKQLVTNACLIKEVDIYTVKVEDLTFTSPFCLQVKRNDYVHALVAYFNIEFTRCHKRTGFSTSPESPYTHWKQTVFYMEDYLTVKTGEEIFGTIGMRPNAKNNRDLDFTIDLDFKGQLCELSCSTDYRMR
Experimental: as §1
(§5) The PRMT1 methylation assay was performed under the following conditions in a final well volume of 100 μL: 2.5 mM HEPES (pH=7.0), 25 mM NaCl, 25 μM EDTA, 50 μM TCEP, 0.01% Triton X-100, 5 μM SAHH, 0.1 μM PRMT1, 10 μM AdoMet, and 10 μM ThioGlo4. […] The fluorescence signal was monitored on a BMG CLARIOstar microplate reader with excitation at 400 nm and emission at 465 nm for 15 min. Data were processed using GraphPad Prism software 8.0.
as §3
as §5, with “A fluorescence-based SAHH-coupled assay was applied to determine the inhibition activity of all synthesized compounds on PRMT 1 and 3. The PRMT1” for “The PRMT1”, “software 8.0. All experiments were performed in duplicate.” for “software 8.0.”

PRMT4 = molecular target: T2, PRMT4 (Homo sapiens, UniProt Q86X55); assay: radioactive assay (Reaction Biology Corp.), inhibition of PRMT4
T2 sequence (Q86X55 1-608): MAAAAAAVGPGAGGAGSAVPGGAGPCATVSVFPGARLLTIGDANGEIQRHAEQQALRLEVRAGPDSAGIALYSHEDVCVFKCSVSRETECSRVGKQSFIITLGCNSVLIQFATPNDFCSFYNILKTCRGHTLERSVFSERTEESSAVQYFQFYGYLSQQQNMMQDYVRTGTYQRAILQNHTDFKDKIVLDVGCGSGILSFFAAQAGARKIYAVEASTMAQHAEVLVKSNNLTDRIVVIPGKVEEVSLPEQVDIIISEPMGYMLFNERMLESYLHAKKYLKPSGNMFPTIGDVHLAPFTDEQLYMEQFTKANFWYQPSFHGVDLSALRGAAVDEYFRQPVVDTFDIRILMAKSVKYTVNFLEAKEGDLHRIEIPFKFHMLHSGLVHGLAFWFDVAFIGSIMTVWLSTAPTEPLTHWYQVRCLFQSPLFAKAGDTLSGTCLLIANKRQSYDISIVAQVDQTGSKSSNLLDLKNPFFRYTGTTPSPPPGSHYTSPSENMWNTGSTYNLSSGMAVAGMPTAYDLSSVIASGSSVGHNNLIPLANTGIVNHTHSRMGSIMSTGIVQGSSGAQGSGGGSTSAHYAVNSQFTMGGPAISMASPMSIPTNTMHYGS
Experimental: as §3, §4

PRMT3, sequence (O60678 211-531): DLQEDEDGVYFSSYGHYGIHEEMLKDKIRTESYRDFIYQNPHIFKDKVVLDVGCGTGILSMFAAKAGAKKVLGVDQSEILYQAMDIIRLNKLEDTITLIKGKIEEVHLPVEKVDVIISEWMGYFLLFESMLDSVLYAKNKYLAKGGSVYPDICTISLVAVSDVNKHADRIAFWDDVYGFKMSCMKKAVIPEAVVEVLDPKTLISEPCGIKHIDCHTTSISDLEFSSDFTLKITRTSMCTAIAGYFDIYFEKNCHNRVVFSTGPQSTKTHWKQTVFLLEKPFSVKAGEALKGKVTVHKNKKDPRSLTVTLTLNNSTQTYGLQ

Row | inhibition at 10 µM (PRMT3) [%] | inhibition at 10 µM (PRMT8) [%] | inhibition at 10 µM (PRMT6) [%] | inhibition at 10 µM (PRMT1) [%] | inhibition at 10 µM (PRMT4) [%] | IC50 (PRMT1) [nM] | SMILES
1 | 10 | 5 | 5 | 2 | 19 |  | Nc1ncnc2c1ncn2[C@@H]1O[C@H](CSCCNC(=O)NCc2ccc(-c3cn[nH]c3)cc2)[C@@H](O)[C@H]1O [Compound 8g]
2 | 8 | 85 | 91 | 90 | 60 | 590 ± 71 | N=C(NCCCSC[C@H]1O[C@@H](n2cnc3c(NCCCc4ccccc4)ncnc32)[C@H](O)[C@@H]1O)NC1CCCC1 [Compound 19d]
3 | 5 | 0 | 79 | 7 | 43 |  | Nc1cccc(-c2ccc(CNC(=O)NCCSC[C@H]3O[C@@H](n4cnc5c(N)ncnc54)[C@H](O)[C@@H]3O)cc2)c1 [Compound 8b]
4 | 5 | 85 | 83 | 87 | 58 | 740 ± 80 | N=C(NCCCSC[C@H]1O[C@@H](n2cnc3c(NCCCc4ccccc4)ncnc32)[C@H](O)[C@@H]1O)NCCCc1ccccc1 [Compound 19m]
5 | 8 | 15 | 6 | 10 | 48 |  | Nc1ncnc2c1ncn2[C@@H]1O[C@H](CSCCOc2ccc(-c3ccncc3)cc2)[C@@H](O)[C@H]1O [Compound 14h]
6 | 25 | 54 | 66 | 54 | 99 |  | Nc1ncnc2c1ncn2[C@@H]1O[C@H](CSCCCNCc2cccc(-c3ccoc3)c2)[C@@H](O)[C@H]1O [Compound 10p]
7 | 24 | 65 | 37 | 71 | 97 |  | Nc1ncnc2c1ncn2[C@@H]1O[C@H](CSCCCNCc2cccc(-c3ccc(C(F)(F)F)cc3)c2)[C@@H](O)[C@H]1O [Compound 10o]
8 | 22 | 72 | 74 | 52 | 95 |  | Nc1ncnc2c1ncn2[C@@H]1O[C@H](CSCCCNCc2cccc(-c3ccc(F)c(O)c3)c2)[C@@H](O)[C@H]1O [Compound 10r]
9 | 9 | 15 | 88 | 22 | 37 |  | Nc1ncnc2c1ncn2[C@@H]1O[C@H](CSCCNC(=O)NCc2ccc(-c3cccc(O)c3)cc2)[C@@H](O)[C@H]1O [Compound 8d]
10 | 25 | 66 | 36 | 63 | 97 |  | Nc1ncnc2c1ncn2[C@@H]1O[C@H](CSCCCNCc2cccc(-c3cccc(F)c3)c2)[C@@H](O)[C@H]1O [Compound 10q]
11 | 20 | 80 | 54 | 7 | 99 |  | Nc1ncnc2c1ncn2[C@@H]1O[C@H](CSCCNCc2cccc(-c3ccc(F)c(O)c3)c2)[C@@H](O)[C@H]1O [Compound 10f]
12 | 21 | 69 | 36 | 57 | 96 |  | Nc1ncnc2c1ncn2[C@@H]1O[C@H](CSCCCNCc2cccc(-c3ccc(O)cc3)c2)[C@@H](O)[C@H]1O [Compound 10n]
13 | 9 | 21 | 16 | 12 | 51 |  | COc1cc2nc(-c3ccc(F)c(O)c3)nc(NCCSC[C@H]3O[C@@H](n4cnc5c(N)ncnc54)[C@H](O)[C@@H]3O)c2cc1OC [Compound 12f]
14 | 1 | 67 | 55 | 19 | 100 |  | Nc1ncnc2c1ncn2[C@@H]1O[C@H](CSCCNCc2cccc(-c3ccc(O)cc3)c2)[C@@H](O)[C@H]1O [Compound 10b]
15 | 13 | 21 | 8 | 12 | 1 |  | COc1cc2nc(-c3ccc(N)cc3)nc(NCCSC[C@H]3O[C@@H](n4cnc5c(N)ncnc54)[C@H](O)[C@@H]3O)c2cc1OC [Compound 12j]

Second part, the molecule before the results:

Row | SMILES | inhibition at 10 µM (PRMT3) [%] | inhibition at 10 µM (PRMT8) [%] | inhibition at 10 µM (PRMT6) [%] | inhibition at 10 µM (PRMT1) [%] | inhibition at 10 µM (PRMT4) [%] | IC50 (PRMT1) [nM]
16 | CCNC(=O)NCCSC[C@H]1O[C@@H](n2cnc3c(N)ncnc32)[C@H](O)[C@@H]1O [Compound 7g, 1-(2-((((2S,3S,4R,5R)-5-(6-amino-9H-purin-9-yl)-3,4-dihydroxytetrahydrofuran-2-yl)methyl)thio)ethyl)-3-ethylurea] | 4 | 14 | 3 | 10 | 27 | 
17 | N=C(NCCCSC[C@H]1O[C@@H](n2cnc3c(N)ncnc32)[C@H](O)[C@@H]1O)Nc1cccc(-c2cccc([N+](=O)[O-])c2)c1 [Compound 6p] | 0 | 100 | 98 | 93 | 100 | 
18 | Nc1ncnc2c1ncn2[C@@H]1O[C@H](CSCCCNC(=O)NCCc2ccccc2)[C@@H](O)[C@H]1O [Compound 7r] | 6 | 22 | 49 | 14 | 47 | 
19 | Nc1ncnc2c1ncn2[C@@H]1O[C@H](CSCCNC(=O)NCc2ccc3cnccc3c2)[C@@H](O)[C@H]1O [Compound 7e] | 8 | -2 | 9 | 6 | 30 | 
20 | N=C(NCCCSC[C@H]1O[C@@H](n2cnc3c(NCCCc4ccccc4)ncnc32)[C@H](O)[C@@H]1O)NCC1CCC1 [Compound 1-89] | 7 | 85 | 90 | 80 | 44 | 590 ± 73
21 | N=C(NCCCSC[C@H]1O[C@@H](n2cnc3c(N)ncnc32)[C@H](O)[C@@H]1O)Nc1cccc(-c2n[nH]cc2C(F)(F)F)c1 [Compound 6q] | 60 | 100 | 98 | 99 | 100 | 
22 | N=C(NCCCO)NCCCSC[C@H]1O[C@@H](n2cnc3c(NCCCc4ccccc4)ncnc32)[C@H](O)[C@@H]1O [Compound 1-92] | 10 | 55 | 84 | 64 | 54 | 590 ± 73
